Measurements: patent publication US6492563B2, “Fragrance precursors” (Givaudan SA, priority 2000, dated 2002)

Key:
Type in all cases: physicochemical
[1] = Photolysis of phenacyl acetals (I) in solution, mercury lamp, GC-FID; set-up: key: 0: no cleavage; +: slow cleavage; ++: medium cleavage; +++: fast cleavage; settings: solution (ethanol), mercury lamp 150 W, Pyrex, one hour irradiation
Experimental: Photorelease assays were conducted on solutions (typical concentrations of precursors (I): 0.05% to 0.1% g/v) in organic solvents (preferably ethanol) or on cotton towels after deposition of the phenacyl acetals (I), as described below in the example 3.
The solutions were irradiated with a mercury lamp (150 W) in a borosilicate glass apparatus (Pyrex®) so as to limit the irradiation window to mainly the UVA and UVB spectrum of sun light. The alcoholic solution was irradiated for one hour and samples taken every 15 minutes to analyze the extent of the photolysis.
The presence of the aryl ketone (II) and ester (III) after photolysis in solutions was determined by using GC retention times. Samples (0.2 μl) were injected (on column injection) without further dilution. Gas chromatography-flame ionization detection (GC-FID) was carried out with a Fisons-GC 8000 series apparatus, using a J&W Scientific DB-5 capillary column (30 m, 0.32 mm id, 0.25 μm film, He carrier gas, 85 kPa).
Whereas precursors derived from Oranger Crystals® cleaved fairly slowly (FIG. 1), those derived from acetanisole cleaved fast and Fixolide® precursors even faster. The rates are calculated from the GC analysis (corresponding peak area).

[2] = Stability tests in aqueous buffer solutions; settings: for Stability at pH 2.5: aqueous buffer pH 2.5, 24 h at 37° C.; for Stability at pH 7: aqueous buffer pH 7, 24 h at 37° C.; for Stability at pH 9.5: aqueous buffer pH 9.5, 24 h at 37° C.
[3] = Stability in washing liquor (washing conditions, OMO Progress base), HPLC; settings: for Stability at pH 11: pH 11, washing conditions as in example 5; for Amount ecovered / Recovered: washing liquor stirred one hour at room temperature; for Amount ecovered: extraction, HPLC; for Recovered: relative to amount incorporated
Experimental: (§1) Washing tests were performed according to the following hand washing test cedure with OMO Progress® base which contains the following ingredients:
(§2) 1- The washing powder (2.1 g) containing the phenacyl acetal (I, about 21 mg, 1%) was dissolved in water (500 ml) at room temperature.
The washing liquor (2.1 g washing powder containing 1% phenacyl acetal (I) in 500 ml water), according to 1 in the above described washing procedure, was stirred during one hour at room temperature. Extraction with an organic solvent (preferably t-butyl methyl ether) to recover organic compounds and analysis with HPLC gave the amounts of recovered phenacyl acetal (I), table 4.

[4] = Hand washing tests: partition between water and fabric (substantivity), HPLC; settings: for Amounts recovered: Water: extract of aqueous washing liquor after hand washing; for Amounts recovered: Water, % (±10%): extract of aqueous washing liquor; for Amounts recovered: Water, % (±10%) / Amounts recovered: Towel extract, % (±10%): of amount incorporated; for Amounts recovered: Towel extract: extract of dried towels after hand washing; for Amounts recovered: Towel extract, % (±10%): extract of dried towels
Experimental: as §1, §2
2- The towels (35 g) were added to the liquor and mixed with a glass stick.
3- Towels were soaked for 45 minutes with stirring every 15 minutes.
4- The wringed towels were rinsed three times with fresh water (250 ml) with intermediate wringing.
5- Towels were allowed to dry in a dark and odorless place before analysis or evaluation.
The towels were extracted with an organic solvent (preferably t-butyl methyl ether) using a Dionex ASE200 Accelerated Solvent Extractor and the extracts were analyzed by HPLC (Hewlett Packard Series 1100, column: Zorbax Eclipse XDB-C18, dimensions 15 cm×4.6 mm×5 μm).
The washing liquor was extracted with an organic solvent (preferably t-butyl methyl ether, 250 ml) and analyzed by HPLC as above.
The aqueous liquors were extracted with an organic solvent (preferably t-butyl methyl ether) and analytical HPLC gave the results in table 5, which are related to partition between water and fabric.

| UV-test (release of aryl ketone (II) and ester (III), cleavage) [1] | Stability at pH 2.5 [2] | Stability at pH 7 [2] | Stability at pH 9.5 [2] | Stability at pH 11 [3] | Amount ecovered [3] | Recovered [3] | Amounts recovered: Water [4] | Amounts recovered: Water, % (±10%) [4] | Amounts recovered: Towel extract [4] | Amounts recovered: Towel extract, % (±10%) [4] | SMILES |
| --- | --- | --- | --- | --- | --- | --- | --- | --- | --- | --- | --- |
| ++ |  |  |  |  |  |  |  |  |  |  | COc1ccc(C(=O)COC(C)OCCC(C)CCC=C(C)C)cc1 (centres unmarked) [compound 7, 2-[1-(3,7-Dimethyl-oct-6-enyloxy)-ethoxy]-1-(4-methoxy-phenyl)-ethanone] |
| +++ | stable | stable | stable | stable | 22.2 mg | 99% | 16.3 mg | 69% | 8.7 mg | 42% | CCCCCCOC(C)OCC(=O)c1cc2c(cc1C)C(C)(C)C(C)CC2(C)C (centres unmarked) [compound 8, 1-(3,5,5,6,8,8-Hexamethyl-5,6,7,8-tetrahydro-naphthalen-2-yl)-2-(1-hexyloxy-ethoxy)-ethanone] |
| +++ | stable | stable | stable | stable | 20.0 mg | 96% | 15.3 mg | 67% | 10.3 mg | 45% | CC/C=C\CCOC(C)OCC(=O)c1cc2c(cc1C)C(C)(C)C(C)CC2(C)C (centres unmarked) [compound 9, 1-(3,5,5,6,8,8-Hexamethyl-5,6,7,8-tetrahydro-naphthalen-2-yl)-2-(1-hex-3(Z)-enyloxy-ethoxy)-ethanone] |
| +++ |  |  |  |  |  |  |  |  |  |  | CCOC(C)OCC(=O)c1cc2c(cc1C)C(C)(C)C(C)CC2(C)C (centres unmarked) [compound 10, 2-(1-Ethoxy-ethoxy)-1-(3,5,5,6,8,8-hexamethyl-5,6,7,8-tetrahydro-naphthalen-2-yl)-ethanone] |
| + |  |  |  |  |  |  |  |  |  |  | CCCCCCOC(C)OCC(=O)c1ccc2ccccc2c1 (centres unmarked) [compound 11, 2-(1-Hexyloxy-ethoxy)-1-naphthalen-2-yl-ethanone] |
| + |  |  |  |  |  |  |  |  |  |  | CC(C)=CCCC(C)CCOC(C)OCC(=O)c1ccc2ccccc2c1 (centres unmarked) [compound 12, 2-[1-(3,7-Dimethyl-oct-6-enyloxy)-ethoxy-]1-naphthalen-2-yl-ethanone] |
| ++ |  |  |  |  |  |  |  |  |  |  | COc1ccc(C(=O)COC(Cc2ccccc2)OC)cc1 (centres unmarked) [compound 15, 1-(4-Methoxy-phenyl)-2-(1-methoxy-2-phenyl-ethoxy)-ethanone] |

The next lines start with the molecule.

| SMILES | UV-test (release of aryl ketone (II) and ester (III), cleavage) [1] | Stability at pH 2.5 [2] | Stability at pH 7 [2] | Stability at pH 9.5 [2] | Stability at pH 11 [3] | Amount ecovered [3] | Recovered [3] | Amounts recovered: Water [4] | Amounts recovered: Water, % (±10%) [4] | Amounts recovered: Towel extract [4] | Amounts recovered: Towel extract, % (±10%) [4] |
| --- | --- | --- | --- | --- | --- | --- | --- | --- | --- | --- | --- |
| CCOC(C)OCC(=O)c1ccc(OC)cc1 (centres unmarked) [compound 1, 2-(1-Ethoxy-ethoxy)-1-(4-methoxy-phenyl)-ethanone] | ++ | unstable | stable | stable |  |  |  |  |  |  |  |
| COc1ccc(C(=O)COC(C)OCCc2ccccc2)cc1 (centres unmarked) [compound 2, 1-(4-Methoxy-phenyl)-2-(1-phenethyloxy-ethoxy)-ethanone] | ++ | unstable | stable | stable | stable | 18.5 mg | 83% | 15 mg | 63% | 10.5 mg | 44% |
| CC/C=C\CCOC(C)OCC(=O)c1ccc(OC)cc1 (centres unmarked) [compound 3, 2-(1-Hex-3(Z)-enyloxy-ethoxy)-1-(4-methoxy-phenyl)-ethanone] | ++ | unstable | stable | stable | stable | 22.3 mg | 100% | 13.3 mg | 59% | 14 mg | 62% |
| COc1ccc(C(=O)COC(C)OCCC(C)CC(C)(C)C)cc1 (centres unmarked) [compound 4, 1-(4-Methoxy-phenyl)-2-[1-(3,5,5-trimethyl-hexyloxy)-ethoxyl]-ethanone] | ++ | unstable | stable | stable | stable | 23.5 mg | 100% | 17.5 mg | 75% | 8.9 mg | 38% |
| CCCCCCOC(C)OCC(=O)c1ccc(OC)cc1 (centres unmarked) [compound 5, 2-(1-Hexyloxy-ethoxy)-1-(4-methoxy-phenyl)-ethanone] | ++ | unstable | stable | stable | stable | 25.7 mg | 100% | 18.4 mg | 73% | 11.7 mg | 46% |
| COc1ccc(C(=O)COC(C)OCCCc2ccccc2)cc1 (centres unmarked) [compound 6, 1-(4-Methoxy-phenyl)-2-[1-(3-phenyl-propoxy)-ethoxy]-ethanone] | ++ | unstable | stable | stable | stable | 20.8 mg | 94% | 14.5 mg | 65% | 17 mg | 47% |
